In BindingDB's records for doi:10.1111/cbdd.12243 (Shandong Institute of Pharmaceutical Industry, 2014) one finds IC50 data, which are given here for ten compounds.

Assay in all cases: Z-LYTE biochemical assay
Common to all, as to details: 25 °C

For assay [1], the target named is Tyrosine-protein kinase ABL1 (Homo sapiens, UniProt P00519). How it is done:
(§1) The reaction was stopped by the addition of 5 µL stop reagent.

In assay [2] the target is Vascular endothelial growth factor receptor 2 (Homo sapiens, UniProt P35968). Here is the method:
as §1

Assay [3] concerns the target Receptor protein-tyrosine kinase (Homo sapiens, UniProt Q504U8). Here is the method: as §1

Chain of Vascular endothelial growth factor receptor 2 (P35968 whole entry): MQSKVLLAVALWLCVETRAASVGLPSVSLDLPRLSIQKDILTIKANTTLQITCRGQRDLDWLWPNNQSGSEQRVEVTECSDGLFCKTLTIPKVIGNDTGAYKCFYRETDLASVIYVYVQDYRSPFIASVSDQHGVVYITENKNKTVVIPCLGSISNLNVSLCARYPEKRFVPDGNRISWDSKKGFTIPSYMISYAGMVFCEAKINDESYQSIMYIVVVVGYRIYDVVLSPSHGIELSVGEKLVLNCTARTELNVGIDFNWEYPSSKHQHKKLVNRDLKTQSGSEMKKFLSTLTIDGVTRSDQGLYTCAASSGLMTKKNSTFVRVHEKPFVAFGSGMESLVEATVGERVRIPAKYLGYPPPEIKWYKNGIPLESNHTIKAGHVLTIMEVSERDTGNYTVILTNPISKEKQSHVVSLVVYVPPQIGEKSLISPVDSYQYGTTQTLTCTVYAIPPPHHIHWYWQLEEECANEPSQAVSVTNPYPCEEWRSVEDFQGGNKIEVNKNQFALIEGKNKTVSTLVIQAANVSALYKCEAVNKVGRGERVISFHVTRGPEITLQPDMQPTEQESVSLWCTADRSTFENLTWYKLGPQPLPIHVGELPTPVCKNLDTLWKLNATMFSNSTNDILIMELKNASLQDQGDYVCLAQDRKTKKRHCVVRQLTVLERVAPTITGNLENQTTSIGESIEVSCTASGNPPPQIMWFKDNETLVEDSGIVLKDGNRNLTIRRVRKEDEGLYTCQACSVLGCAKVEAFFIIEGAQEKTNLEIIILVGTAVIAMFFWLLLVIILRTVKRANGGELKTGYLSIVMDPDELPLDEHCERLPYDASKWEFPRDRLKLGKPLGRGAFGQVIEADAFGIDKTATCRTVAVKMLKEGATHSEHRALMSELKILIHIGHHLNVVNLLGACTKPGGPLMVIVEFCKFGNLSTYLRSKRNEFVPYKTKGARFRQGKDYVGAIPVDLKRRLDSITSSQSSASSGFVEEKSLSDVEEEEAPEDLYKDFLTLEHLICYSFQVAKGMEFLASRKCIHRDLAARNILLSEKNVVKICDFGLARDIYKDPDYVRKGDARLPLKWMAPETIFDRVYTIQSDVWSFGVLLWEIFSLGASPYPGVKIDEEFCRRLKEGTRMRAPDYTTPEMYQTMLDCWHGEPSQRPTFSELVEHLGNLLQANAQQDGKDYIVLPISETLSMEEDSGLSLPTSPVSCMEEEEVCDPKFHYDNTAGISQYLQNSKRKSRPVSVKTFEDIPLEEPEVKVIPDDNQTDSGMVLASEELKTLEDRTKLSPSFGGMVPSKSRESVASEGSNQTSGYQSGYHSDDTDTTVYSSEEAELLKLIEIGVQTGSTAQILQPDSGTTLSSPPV
Chain of Tyrosine-protein kinase ABL1 (P00519 whole entry): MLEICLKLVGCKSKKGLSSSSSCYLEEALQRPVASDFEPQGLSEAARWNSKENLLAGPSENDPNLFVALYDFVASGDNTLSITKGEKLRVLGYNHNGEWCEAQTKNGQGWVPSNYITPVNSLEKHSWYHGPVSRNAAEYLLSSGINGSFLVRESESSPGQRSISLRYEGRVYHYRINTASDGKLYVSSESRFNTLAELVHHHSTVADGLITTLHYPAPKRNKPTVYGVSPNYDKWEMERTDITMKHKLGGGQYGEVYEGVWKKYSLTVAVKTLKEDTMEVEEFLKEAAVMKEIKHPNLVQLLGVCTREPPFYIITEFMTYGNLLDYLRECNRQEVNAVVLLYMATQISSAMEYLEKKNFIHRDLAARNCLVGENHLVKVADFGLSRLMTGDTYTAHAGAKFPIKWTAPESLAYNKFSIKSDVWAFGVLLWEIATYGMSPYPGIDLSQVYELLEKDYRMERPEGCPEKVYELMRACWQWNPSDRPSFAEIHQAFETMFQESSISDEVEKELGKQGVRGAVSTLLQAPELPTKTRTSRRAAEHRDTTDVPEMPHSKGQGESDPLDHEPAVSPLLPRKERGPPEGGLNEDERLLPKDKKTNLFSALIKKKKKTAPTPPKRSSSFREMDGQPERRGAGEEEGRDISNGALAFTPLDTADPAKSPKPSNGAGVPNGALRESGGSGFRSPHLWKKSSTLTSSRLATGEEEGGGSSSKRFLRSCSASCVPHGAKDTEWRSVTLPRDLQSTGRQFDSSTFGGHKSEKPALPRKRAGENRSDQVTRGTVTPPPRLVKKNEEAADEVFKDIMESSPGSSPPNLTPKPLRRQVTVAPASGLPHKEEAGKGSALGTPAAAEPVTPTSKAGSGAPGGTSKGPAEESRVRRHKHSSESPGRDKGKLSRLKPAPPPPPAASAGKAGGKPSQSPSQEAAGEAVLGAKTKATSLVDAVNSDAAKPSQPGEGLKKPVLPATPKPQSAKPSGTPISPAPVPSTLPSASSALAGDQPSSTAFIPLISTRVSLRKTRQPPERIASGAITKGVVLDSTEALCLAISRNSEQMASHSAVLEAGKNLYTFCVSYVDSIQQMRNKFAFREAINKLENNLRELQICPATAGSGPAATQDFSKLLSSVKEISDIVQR
Chain of Receptor protein-tyrosine kinase (Q504U8 whole entry): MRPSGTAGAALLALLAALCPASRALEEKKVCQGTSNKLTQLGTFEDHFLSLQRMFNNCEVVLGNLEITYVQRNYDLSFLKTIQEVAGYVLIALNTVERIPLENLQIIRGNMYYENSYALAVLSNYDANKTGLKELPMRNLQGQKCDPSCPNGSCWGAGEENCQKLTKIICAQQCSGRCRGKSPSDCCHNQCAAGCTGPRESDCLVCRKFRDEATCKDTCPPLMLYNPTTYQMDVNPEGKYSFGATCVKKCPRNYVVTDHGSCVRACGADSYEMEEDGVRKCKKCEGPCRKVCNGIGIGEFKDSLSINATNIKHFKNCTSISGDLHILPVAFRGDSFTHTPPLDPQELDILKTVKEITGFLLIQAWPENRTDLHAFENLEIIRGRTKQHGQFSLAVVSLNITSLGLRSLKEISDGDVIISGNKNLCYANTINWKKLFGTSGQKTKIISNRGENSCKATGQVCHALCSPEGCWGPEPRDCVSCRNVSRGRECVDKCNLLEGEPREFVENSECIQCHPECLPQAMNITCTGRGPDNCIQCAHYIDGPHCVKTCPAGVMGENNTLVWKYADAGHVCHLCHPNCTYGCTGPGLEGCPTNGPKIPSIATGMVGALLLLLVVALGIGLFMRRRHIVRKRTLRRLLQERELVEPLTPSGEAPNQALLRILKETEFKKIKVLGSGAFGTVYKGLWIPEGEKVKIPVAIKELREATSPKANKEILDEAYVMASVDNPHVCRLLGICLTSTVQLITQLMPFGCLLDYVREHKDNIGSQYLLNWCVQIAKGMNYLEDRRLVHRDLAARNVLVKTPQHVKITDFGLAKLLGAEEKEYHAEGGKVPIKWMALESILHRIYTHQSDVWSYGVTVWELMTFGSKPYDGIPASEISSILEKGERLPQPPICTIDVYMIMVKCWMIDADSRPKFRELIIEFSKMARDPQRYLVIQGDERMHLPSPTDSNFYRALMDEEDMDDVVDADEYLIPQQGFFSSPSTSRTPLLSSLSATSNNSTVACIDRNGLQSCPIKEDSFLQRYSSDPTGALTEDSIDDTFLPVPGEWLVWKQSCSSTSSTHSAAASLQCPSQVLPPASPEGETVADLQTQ

With `Cc1cc(C)nc(NS(=O)(=O)c2ccc(Nc3nccc(N(C)c4ccc5c(C)n(C)nc5c4)n3)cc2)n1` [4-((4-((2,3-dimethyl-2H-indazole-6-yl)(methyl)amino)pyrimidin-2-yl)amino)-N-(4,6-dimethylpyrimidin-2-yl)benzenesulfonamide (P2e)], the 50% inhibitory concentration (IC50) (in general, the concentration that gives 50% inhibition) was 22 nM in assay [1] and 12 nM in assay [2].

For `Cc1ccnc(NS(=O)(=O)c2ccc(Nc3nccc(N(C)c4ccc5c(C)n(C)nc5c4)n3)cc2)n1` [4-((4-((2,3-dimethyl-2H-indazole-6-yl)(methyl)amino)pyrimidin-2-yl)amino)-N-(4-methylpyrimidin-2-yl)benzenesulfonamide (P2d)], the results for the 50% inhibitory concentration (IC50) in assay [1] and in assay [2] were 62 nM and 25 nM, respectively.

Consider `Cc1cc(NS(=O)(=O)c2ccc(Nc3nccc(N(C)c4ccc5c(C)n(C)nc5c4)n3)cc2)no1` [4-((4-((2,3-dimethyl-2H-indazole-6-yl)(methyl)amino)pyrimidin-2-yl)amino)-N-(5-methylisoxazol-3-yl)benzenesulfonamide (P2f)], for which the half-maximal inhibitory concentration (IC50) in assay [1] is 320 nM; in assay [2] it was 650 nM.

With `Cc1c2ccc(N(C)c3ccnc(Nc4ccc(S(=O)(=O)Nc5ncccn5)cc4)n3)cc2nn1C` [4-((4-((2,3-dimethyl-2H-indazole-6-yl)(methyl)amino)pyrimidin-2-yl)amino)-N-(pyrimidin-2-yl) benzenesulfonamide (P2c)], the results for the IC50 in assay [1] and in assay [2] were 120 nM and 29 nM, respectively.

Turning to `Cc1cc(C)nc(NS(=O)(=O)c2ccc(Nc3nccc(Nc4ccc5c(C)n(C)nc5c4)n3)cc2)n1` [4-((4-((2,3-dimethyl-2H-indazole-6-yl)amino)pyrimidin-2-yl)amino)-N-(4,6-dimethylpyrimidin-2-yl)benzenesulfonamide (P1e)], the 50% inhibitory concentration (IC50) in assay [1] was 360 nM; in assay [2], 120 nM.

Regarding `Cc1ccnc(NS(=O)(=O)c2ccc(Nc3nccc(Nc4ccc5c(C)n(C)nc5c4)n3)cc2)n1` [4-((4-((2,3-dimethyl-2H-indazole-6-yl)amino)pyrimidin-2-yl)amino)-N-(4-methylpyrimidin-2-yl) benzenesulfonamide (P1d)], the IC50 in assay [1] came out at 280 nM; in assay [2], 160 nM.

Consider `Cc1cc(NS(=O)(=O)c2ccc(Nc3nccc(Nc4ccc5c(C)n(C)nc5c4)n3)cc2)no1` [4-((4-((2,3-dimethyl-2H-indazole-6-yl)amino)pyrimidin-2-yl)amino)-N-(5-methylisoxazol-3-yl) benzenesulfonamide (P1f)], for which the IC50 turned out to be 2180 nM in assay [1] and 1630 nM in assay [2].

For `Cc1c2ccc(Nc3ccnc(Nc4ccc(S(=O)(=O)Nc5ncccn5)cc4)n3)cc2nn1C` [4-((4-((2,3-dimethyl-2H-indazole-6-yl)amino)pyrimidin-2-yl)amino)-N-(pyrimidin-2-yl) benzenesulfonamide (P1c)], the 50% inhibitory concentration (IC50) worked out at 460 nM in assay [1] and 34 nM in assay [2].

As to `Cc1c2ccc(N(C)c3ccnc(Nc4ccc(S(=O)(=O)NC(=N)N)cc4)n3)cc2nn1C` [N-carbamimidoyl-4-((4-((2,3-dimethyl-2H-indazole-6-yl)(methyl)amino)pyrimidin-2-yl)amino) benzenesulfonamide (P2g)], the IC50 in assay [3] was 1370 nM; in assay [1], 360 nM; in assay [2] it was 720 nM.

On to `Cc1c2ccc(Nc3ccnc(Nc4ccc(S(=O)(=O)NC(=N)N)cc4)n3)cc2nn1C` [N-carbamimidoyl-4-((4-((2,3-dimethyl-2H-indazole-6-yl)amino)pyrimidin-2-yl)amino) benzenesulfonamide (P1g)], for which the IC50 was 930 nM in assay [1] and 1340 nM in assay [2].
